Experimental data published in US20180180595A1, “CELL LINES MUTANT FOR PATCHED 1 AND PATCHED 2 AND METHODS OF USE THEREOF” (The Regents of the University of California, priority 2015, published 2018).

System: hedgehog response pathway
Test: Hh pathway response in neuralized embryoid bodies from Ptch1-/-;Ptch2-/- mESCs
Assay type: cell-based, murine
Conditions: Ptch1-/-;Ptch2-/- mESCs differentiated into NEBs; agent added exogenously
Text: In the absence of Ptch1, Ptch2 can mediate some measure of the Shh response. Given the contribution of both Ptch1 and Ptch2 to the interpretation of the Shh signal, it was reasoned that a Ptch1^−/−;Ptch2^−/− genetic background was essential to assess the aggregate contribution of Ptch1/2 to Shh signaling. […] The Ptch1^−/−;Ptch2^−/−;Shh^−/− assessed here have a LacZ under the control of the Ptch1 promoter (Goodrich et al., Science. 1997, 277:1109-1113). Since the upregulation of Ptch1 is a common response to the activation of the Hh response pathway, induction of LacZ in NEBs was assessed. A strong induction of LacZ was observed after three days into the differentiation protocol, consistent with the ventral identity observed using neural markers.

CNC1CCC(N(Cc2cccc(-c3ccncc3)c2)C(=O)c2sc3ccccc3c2Cl)CC1 (stereo not shown) [SAG]
induction of the hedgehog response pathway: could not be further induced
